Source: US5830868A, “Substituted DI- and tripeptide inhibitors of protein: farnesyl transferase” (Warner-Lambert Company, priority 1996, dated 1998)
Numbered stars: 1 amine (or outer) side, 2 acyl side, 3 side chain; on linkers, the order of the positions; unused ones are H or OH. Square brackets hold non-standard residues; d marks the D form. Peptide text beside a SMILES is read from it. * marks the point of attachment. Bip = N[C@@H](Cc1ccc(-c2ccccc2)cc1)C(=O)O; His(τ-Me) = Cn1cnc(C[C@H](N)C(=O)O)c1; 3Pal = N[C@@H](Cc1cccnc1)C(=O)O; NHPhenethyl = c1ccc(CCN*)cc1; Cbz = O=C(OCc1ccccc1)*; CO = O=C([*:1])[*:2]; NHBn = c1ccc(CN*)cc1; Bn = c1ccc(C*)cc1

Biological target: T1, rat brain farnesyl protein transferase (PFT) (Rattus norvegicus, UniProt Q02293+Q04631)
T1 construct: 40-fold purified rat brain farnesyl protein transferase; from tissue; host or cells: rat brain
Test: PFT inhibitory activity assay (radiolabeled farnesyl pyrophosphate, biotinyl peptide, streptavidin beads)
Format: biochemical
Conditions: 40-fold purified rat brain enzyme; 0.12 μM [3H]FPP, 0.1 μM biotinyl-Ahe-Tyr-Lys-Cys-Val-Ile-Met; 37° C., 30 minutes; read-out: IC50 (μM) against PFT
Description: The PFT inhibitory activity of compounds of Formula I was assayed in 30 mM potassium phosphate buffer, pH 7.4, containing 7 mM DTT, 1.2 mM MgCl2, 0.1 mM leupeptin, 0.1 mM pepstatin and 0.2 mM phenylmethylsulfonyl fluoride. Assays were performed in 96 well plates (Wallec) and employed solutions composed of varying concentrations of a compound of Formula I in 100% DMSO. Upon addition of both substrates, radiolabeled farnesyl pyrophosphate ([1-^3 H], specific activity 15--30 Ci/mmol, final concentration 0.12 μM) and (biotinyl)-Ahe-Tyr-Lys-Cys-Val-Ile-Met peptide (final concentration 0.1 μM), the enzyme reaction was started by addition of 40-fold purified rat brain farnesyl protein transferase. After incubation at 37° C. for 30 minutes, the reaction was terminated by diluting the reaction 2.5-fold with a stop buffer containing 1.5M magnesium acetate, 0.2M H3 PO4, 0.5% BSA, and strepavidin beads (Amersham) at a concentration of 1.3 mg/mL. After allowing the plate to settle for 30 minutes at room temperature, radioactivity was quantitated on a microBeta counter (model 1450, Wallec). Compounds of Formula I show IC50 values of 0.5 nM to 80 μM (see data table) in this assay and are thus valuable inhibitors of protein: farnesyl transferase enzyme which may be used in the medical treatment of tissue proliferative diseases, including cancer and restenosis.

T1 sequence (Q02293 whole entry, one chain of several): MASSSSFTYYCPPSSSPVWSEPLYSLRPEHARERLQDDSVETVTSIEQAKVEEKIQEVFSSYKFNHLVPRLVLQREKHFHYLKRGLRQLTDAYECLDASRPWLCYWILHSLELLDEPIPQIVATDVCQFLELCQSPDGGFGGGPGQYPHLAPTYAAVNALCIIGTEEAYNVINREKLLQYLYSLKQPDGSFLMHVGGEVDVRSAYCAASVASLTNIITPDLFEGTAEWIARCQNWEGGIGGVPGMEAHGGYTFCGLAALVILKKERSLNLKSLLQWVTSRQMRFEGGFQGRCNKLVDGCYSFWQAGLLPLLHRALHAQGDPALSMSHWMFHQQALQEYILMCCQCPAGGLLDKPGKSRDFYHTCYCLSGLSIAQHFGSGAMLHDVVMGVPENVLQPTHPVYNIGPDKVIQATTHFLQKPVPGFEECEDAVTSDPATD

| Molecule | IC50 [µM] |
| --- | --- |
| CCCCNC(=O)NC(Cc1cnc[nH]1)C(=O)NC(Cc1ccc(OCc2ccccc2)cc1)C(=O)NCCCCc1ccccc1 [5 (4), BuNHCO--D--His--Tyr(OBn)--CONH(CH2)4 Ph] | 7.3 |
| CC(C)NC(=O)N[C@H](Cc1c[nH]cn1)C(=O)N[C@@H](Cc1ccc(OCc2ccccc2)cc1)C(=O)NCCCCc1ccccc1 [5 (79), (CH3)2 CHNHCO--D--His--Tyr(OBn)CONHCH2 CH2 CH2 CH2 Ph] | 3 |
| O=C(CCc1ccccc1)NC(Cc1c[nH]cn1)C(=O)NC(Cc1ccc(OCc2ccccc2)cc1)C(=O)NCc1ccccc1 [5 (80), PhCH2 CH2 CO--D--His--Tyr(OBn)CONHCH2 Ph] | 1.6 |
| O=C(NCc1ccccc1)N[C@H](Cc1c[nH]cn1)C(=O)N[C@@H](Cc1ccc(OCc2ccccc2)cc1)C(=O)NOCc1ccccc1 [5 (52), BnNHCO--D--His--Tyr(OBn)CONHOBn] | 1.6 |
| PhCH2 CH2 NHCO--D--His--Tyr(OBn)CONHCH2 CH2 [5 (27)] | 30 |
| O=C(NCc1ccccc1)N[C@@H](Cc1c[nH]cn1)C(=O)N[C@@H](Cc1ccc(OCc2ccccc2)cc1)C(=O)NCCCOc1ccccc1 [Example 4] | 1 |
| O=C(N[C@@H](Cc1c[nH]cn1)C(=O)N[C@@H](Cc1ccc(OCc2ccccc2)cc1)C(=O)NCCc1ccccc1)OCc1ccccc1 [Example 23, N-(2-Phenylethyl)-N60-[-N-[(phenylmethoxy)carbonyl]-L-histidyl]-O-(phenylmethyl)-L-tyrosinamide] (Cbz-His-Tyr(Bn)-NHPhenethyl) | 1.9 |
| CCOc1ccc(NC(=O)N[C@@H](Cc2cnc[nH]2)C(=O)N[C@H](Cc2ccc(OCc3ccccc3)cc2)C(=O)NCCCOc2ccccc2)cc1 (stereo in doubt) [Example 25, (S,R)-N-[2-(4-Benzyloxy-phenyl)-1-(3-phenoxy-propylcarbamoyl)-ethyl]-2-[3-(4-ethoxy-phenyl)-ureido]-3-(3H-imidazol-4-yl)-propionamide] | 3.7 |
| O=C(Nc1cccc2ccccc12)N[C@H](Cc1c[nH]cn1)C(=O)N[C@@H](Cc1ccc(OCc2ccccc2)cc1)C(=O)NCc1ccccc1 [5 (60), 1-napthyl-NHCO--D--His--Tyr(OBn)CONHCH2 Ph] | 1.4 |
| COC(=O)[C@H](Cc1cccnc1)NC(=O)[C@H](Cc1ccc(OCc2ccccc2)cc1)NC(=O)[C@H](Cc1c[nH]cn1)NC(=O)OCc1ccccc1 [Example 24, N-[N-[N-[(Phenylmethoxy)carbonyl]-L-histidyl]-O-(phenylmethyl)-L-tyrosyl]-3-(3-pyridinyl)-L-alanine, methyl ester] (Cbz-His-Tyr(Bn)-[3Pal]-OMe) | 1 |
| O=C(Nc1ccccc1)NC(Cc1c[nH]cn1)C(=O)NC(Cc1ccc(OCc2ccccc2)cc1)C(=O)NCCCOc1ccccc1 [5 (3), PhNHCO--D--His--Tyr(OBn)--CONHCH2 CH2 CH2 OPh] | 2.1 |
| NC(=O)[C@H](COCc1ccccc1)NC(=O)[C@H](Cc1ccc(OCc2ccccc2)cc1)NC(=O)[C@H](Cc1c[nH]cn1)NC(=O)OCc1ccccc1 [Example 1, Nα -[N-[N-[(Phenylmethoxy)carbonyl]-L-histidyl]-O-(phenylmethyl)-L-tyrosyl]-O-(phenylmethyl)-L-serinamide] (Cbz-His-Tyr(Bn)-Ser(Bn)-NH2) | 4.4 |
| O=C(Cc1ccccc1)N[C@H](Cc1c[nH]cn1)C(=O)N[C@@H](Cc1ccc(OCc2ccccc2)cc1)C(=O)N1CCN(Cc2ccccc2)CC1 [5 (30), PhCH2 CO--D--His--Tyr(OBn)CO(4-Bn-piperazin-1-yl)] | 73 |
| Cc1ccc(S(=O)(=O)N[C@@H](Cc2cnc[nH]2)C(=O)N[C@H](Cc2ccc(OCc3ccccc3)cc2)C(=O)N2CCN(Cc3ccccc3)CC2)cc1 (stereo in doubt) [Example 28, (S,R)-N-[1-(4-Benzyloxy-benzyl)-2-(4-benzyl-piperazin-1-yl)-2-oxo-ethyl]-3-(3H-imidazol-4-yl)-2-(toluene-4-sulfonylamino)-propionamide] | 11 |
| O=C(Nc1cccc2ccccc12)N[C@H](Cc1c[nH]cn1)C(=O)N[C@@H](Cc1ccc(OCc2ccccc2)cc1)C(=O)NCCOCc1ccccc1 [5 (56), 1-napthyl-NHCO--D--His--Tyr(OBn)CONHCH2 CH2 OBn] | 1.1 |
| COc1ccccc1CCCNC(=O)[C@H](Cc1ccc(OCc2ccccc2)cc1)NC(=O)[C@@H](Cc1c[nH]cn1)NS(=O)(=O)c1ccc(C)cc1 [5 (49), (4-MePh)SO2 --D--His--Tyr(OBn)--CONHCH2 CH2 CH2 --(2-MeO--Ph)] | 2.9 |

Stronger by IC50, values ahead:

| IC50 [µM] | Molecule |
| --- | --- |
| 0.76 | O=C(N[C@H](Cc1cnc[nH]1)C(=O)N[C@@H](Cc1ccc(OCc2ccccc2)cc1)C(=O)NCCc1ccccc1)N[C@@H]1C[C@H]1c1ccccc1 [5 (31), (t-2-Ph-c-propyl)-NHCO--D--His--Tyr(OBn)CONHCH2 CH2 Ph] |
| 0.75 | CC(C)NC(=O)NC(Cc1cnc[nH]1)C(=O)NC(Cc1ccc(OCc2ccccc2)cc1)C(=O)NCc1ccccc1 [5 (40), (CH3)2 CHNHCO--D--His--Tyr(OBn)CONHCH2 Ph] |
| 0.73 | COC(=O)C(CCSC)NC(=O)C(Cc1ccc(OCc2ccccc2)cc1)NC(=O)C(Cc1cnc[nH]1)NC(=O)NCCc1ccccc1 [5 (28), PhCH2 CH2 NHCO--D--His--Tyr(OBn)CONH--Met--CO2 Me] |
| 0.6 | COC(=O)[C@H](COCc1ccccc1)NC(=O)[C@H](Cc1ccc(-c2ccccc2)cc1)NC(=O)[C@H](Cc1c[nH]cn1)NC(=O)OCc1ccccc1 [Example 16, N-[4-Phenyl-N-[N-[(phenylmethoxy)carbonyl]-L-histidyl]-L-phenylalanyl]-O-(phenylmethyl)-L-serine, methyl ester] (Cbz-His-[Bip]-Ser(Bn)-OMe) |
| 0.31 | O=C(N[C@@H](Cc1c[nH]cn1)C(=O)N[C@@H](Cc1ccc(OCc2ccccc2)cc1)C(=O)NCCOCc1ccccc1)OCc1ccccc1 [Example 19, Nα -[-N-[(Phenylmethoxy)carbonyl]-L-histidyl]-O-(phenylmethyl)-N-[2-(phenylmethoxy)ethyl]-L-tyrosinamide] |
| 0.31 | CN(C(=O)OCc1ccccc1)[C@H](Cc1c[nH]cn1)C(=O)N[C@@H](Cc1ccc(OCc2ccccc2)cc1)C(=O)NCCOCc1ccccc1 [Example 21, Nα -[N-Methyl-N[(phenylmethoxy)carbonyl]-D-histidyl]-N-[2-(phenylmethoxy)ethyl]-O-(phenylmethyl)-L-tyrosinamide] |
| 0.27 | COC(=O)[C@@H](COCc1ccccc1)NC(=O)[C@H](Cc1ccc(OCc2ccccc2)cc1)NC(=O)[C@H](Cc1c[nH]cn1)NC(=O)OCc1ccccc1 [Example 9, N-[N-[N-[(Phenylmethoxy)carbonyl]-L-histidyl]-O-(phenylmethyl)-L-tyrosyl]-O-(phenylmethyl)-D-serine, methyl ester] (Cbz-His-Tyr(Bn)-[dS](Bn)-OMe) |
| 0.26 | O=C(N[C@@H](Cc1c[nH]cn1)C(=O)N[C@@H](Cc1ccc(OCc2ccccc2)cc1)C(=O)N[C@@H](COCc1ccccc1)C(=O)O)OCc1ccccc1 [Example 7, N-[N-[N-[(Phenylmethoxy)carbonyl]-L-histidyl]-O-(phenylmethyl)-L-tyrosyl]-O-(phenylmethyl)-L-serine] (Cbz-His-Tyr(Bn)-Ser(Bn)-OH) |
| 0.17 | CCNC(=O)[C@H](COCc1ccccc1)NC(=O)[C@H](Cc1ccc(OCc2ccccc2)cc1)NC(=O)[C@H](Cc1c[nH]cn1)NC(=O)OCc1ccccc1 [Example 11, N-Ethyl-Nα -[N-[N-[(phenylmethoxy)carbonyl]-L-histidyl]-O-(phenylmethyl)-L-tyrosyl]-O-(phenylmethyl)-L-serinamide] (Cbz-His-Tyr(Bn)-Ser(Bn)-NHEt) |
| 0.083 | COC(=O)[C@H](COCc1ccccc1)NC(=O)[C@H](Cc1ccc(OCc2ccccc2)cc1)NC(=O)[C@H](Cc1cn(C)cn1)NC(=O)OCc1ccccc1 [Example 13, N-[N-[1-Methyl-N-[(phenylmethoxy)carbonyl]l-L-histidyl]-O-(phenylmethyl)-L-tyrosyl]-O-(phenylmethyl)-L-serine. methyl ester] (Cbz-[His(τ-Me)]-Tyr(Bn)-Ser(Bn)-OMe) |
| 0.074 | COC(=O)[C@H](COCc1ccccc1)NC(=O)[C@H](Cc1ccc(OCc2ccccc2)cc1)NC(=O)[C@@H](Cc1c[nH]cn1)NC(=O)OCc1ccccc1 [Example 8, N-[N-[N-[(Phenylmethoxy)carbonyl]-D-histidyl]-O-(phenylmethyl)-L-tyrosyl]-O-(phenylmethyl)-L-serine, methyl ester] (Cbz-[dH]-Tyr(Bn)-Ser(Bn)-OMe) |
| 0.039 | COC(=O)[C@H](COCc1ccccc1)NC(=O)[C@H](Cc1ccc(OCc2ccccc2)cc1)NC(=O)[C@H](Cc1c[nH]cn1)NC(=O)NCc1ccccc1 [Example 17, N-[O-(Phenylmethyl)-N[N-[[(Phenylmethyl)amino]-carbonyl]-L-histidyl]-L-tyrosyl]-O-(phenylmethyl)-serine, methyl ester] ({NHBn-CO}-His-Tyr(Bn)-Ser(Bn)-OMe) |
| 0.028 | CCNC(=O)[C@H](COCc1ccccc1)NC(=O)[C@H](Cc1ccc(OCc2ccccc2)cc1)NC(=O)[C@@H](Cc1c[nH]cn1)NC(=O)OCc1ccccc1 [Example 12, N-Ethyl-Nα -[N-[N-[(Phenylmethoxy)carbonyl]-D-histidyl]-O-(phenylmethyl)-L-tyrosyl]-O-(phenylmethyl)-L-serinamide] (Cbz-[dH]-Tyr(Bn)-Ser(Bn)-NHEt) |
